According to patent US9090596B2, “Disubstituted 3,4-diamino-3-cyclobutene-1,2-dione compounds for use in the treatment of chemokine-mediated pathologies” (GALDERMA RESEARCH & DEVELOPMENT, priority 2011, dated 2015):

Tests used:
CXCR2 receptor = CXCR2 receptor (Homo sapiens (Human), UniProt P25025); assay: β-arrestin 2 recruitment test, PathHunter HEK293-CXCR2 cells stimulated with CXCL8; type: cell-based; settings: CXCL8 stimulation
Protocol: (§1) The in vitro affinity of the compounds of the present invention for the CXCR1 and CXCR2 receptors was determined on a functional test of the β-arrestin recruitment type after receptor activation.
(§2) β-Arrestin Recruitment Assay:
(§3) “PathHunter HEK293-CXCR2” or “U2OS hCXCR1 β-arrestin” cells (DiscoveRx Corporation) were seeded overnight at 10 000 cells/well (384-well format) in 20 μl of Opti MEM I medium. A preincubation with the antagonist or the vehicle for 30 min at 37° C. and 5% CO2 was followed by 60 minutes of stimulation with CXCL8 at 37° C. and 5% CO2. The cells were then placed at ambient temperature for 30 minutes. The PathHunter detection reagent (DiscoveRx Corporation) was added. […] The data were analyzed by means of a non-linear curve procedure using the XLFit4 exploitation software (IDBS) and the IC50 values were determined.

CXCR1 receptor = CXCR1 receptor (Homo sapiens (Human), UniProt P25024); assay: β-arrestin 2 recruitment test, U2OS hCXCR1 β-arrestin cells stimulated with CXCL8; type: cell-based; settings: CXCL8 stimulation
Protocol: as §1, §2, §3

Chain of CXCR2 receptor (P25025 whole entry): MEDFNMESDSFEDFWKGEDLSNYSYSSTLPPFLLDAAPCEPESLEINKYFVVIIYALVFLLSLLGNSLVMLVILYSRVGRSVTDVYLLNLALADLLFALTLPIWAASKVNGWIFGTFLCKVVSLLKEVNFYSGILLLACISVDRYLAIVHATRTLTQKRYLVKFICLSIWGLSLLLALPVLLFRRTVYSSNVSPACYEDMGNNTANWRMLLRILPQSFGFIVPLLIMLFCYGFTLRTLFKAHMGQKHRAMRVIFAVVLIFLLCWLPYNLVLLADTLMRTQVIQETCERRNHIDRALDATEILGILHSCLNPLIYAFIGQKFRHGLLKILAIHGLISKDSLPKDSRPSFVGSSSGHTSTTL
Chain of CXCR1 receptor (P25024 whole entry): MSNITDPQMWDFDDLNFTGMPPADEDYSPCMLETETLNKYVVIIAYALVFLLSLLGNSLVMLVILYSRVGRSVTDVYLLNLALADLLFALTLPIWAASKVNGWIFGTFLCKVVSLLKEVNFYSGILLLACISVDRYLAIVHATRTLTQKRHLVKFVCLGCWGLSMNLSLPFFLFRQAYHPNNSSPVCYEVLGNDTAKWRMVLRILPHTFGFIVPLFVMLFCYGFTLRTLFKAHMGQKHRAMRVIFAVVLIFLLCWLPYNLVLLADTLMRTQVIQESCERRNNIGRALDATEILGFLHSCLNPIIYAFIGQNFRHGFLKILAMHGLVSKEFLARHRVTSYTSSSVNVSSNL

| Compound | IC50 (CXCR2 receptor) | IC50 (CXCR1 receptor) |
| --- | --- | --- |
| Cc1ccc(C(Nc2c(Nc3cccc(C(=O)N4CC[C@@H](O)C4)c3O)c(=O)c2=O)C2(C)COC2)o1 (stereo partly drawn) [Example 5, 3-[2-hydroxy-3-((R)-3-hydroxypyrrolidine-1-carbonyl)phenylamino]-4-{[(5-methylfuran-2-yl)-(3-methyloxetan-3-yl)methyl]amino}cyclobut-3-ene-1,2-dione] | 0.341 µM | 2.62 µM |
| Cc1ccc(C(Nc2c(Nc3cccc(C(=O)N4CC[C@H](O)C4)c3O)c(=O)c2=O)C2(C)COC2)o1 (stereo partly drawn) [Example 6, 3-[2-hydroxy-3-((S)-3-hydroxypyrrolidine-1-carbonyl)phenylamino]-4-{[(5-methylfuran-2-yl)-(3-methyloxetan-3-yl)methyl]amino}cyclobut-3-ene-1,2-dione] | 1.09 µM | 2.84 µM |
| Cc1ccc(C(Nc2c(Nc3cccc(C(=O)C(C)C)c3O)c(=O)c2=O)C2(C)COC2)o1 (stereo not shown) [Example 12, 3-(2-hydroxy-3-isobutyrylphenylamino)-4-{[(5-methylfuran-2-yl)-(3-methyloxetan-3-yl)methyl]amino}cyclobut-3-ene-1,2-dione] | 0.1 µM | 10 µM |
| Cc1ccc(C(Nc2c(Nc3cccc(C(=O)N4CCCC4)c3O)c(=O)c2=O)C2(C)COC2)o1 (stereo not shown) [Example 14, 3-[2-hydroxy-3-(pyrrolidine-1-carbonyl)phenylamino]-4-{[(5-methylfuran-2-yl)-(3-methyloxetan-3-yl)methyl]amino}cyclobut-3-ene-1,2-dione] | 0.262 µM | 1.3 µM |
| Cc1ccc(C(Nc2c(Nc3cccc(C(=O)N4CCOCC4)c3O)c(=O)c2=O)C2(C)COC2)o1 (stereo not shown) [Example 15, 3-[2-hydroxy-3-(morpholine-4-carbonyl)phenylamino]-4-{[(5-methylfuran-2-yl)-(3-methyloxetan-3-yl)methyl]amino}cyclobut-3-ene-1,2-dione] | 0.626 µM | 3.17 µM |
| Cc1ccc(C(Nc2c(Nc3cccn(C)c3=O)c(=O)c2=O)C2(C)COC2)o1 (stereo not shown) [Example 19, 3-{[(5-methylfuran-2-yl)-(3-methyloxetan-3-yl)methyl]amino}-4-(1-methyl-2-oxo-1,2-dihydropyridin-3-ylamino)cyclobut-3-ene-1,2-dione] | 0.394 µM | 4.96 µM |
| Cc1ccc(C(Nc2c(Nc3cccnc3O)c(=O)c2=O)C2(C)COC2)o1 (stereo not shown) [Example 20, 3-(2-hydroxypyridin-3-ylamino)-4-{[(5-methylfuran-2-yl)-(3-methyloxetan-3-yl)methyl]amino}-cyclobut-3-ene-1,2-dione] | 0.335 µM | 6.62 µM |
| COc1cccc(C(Nc2c(Nc3cccc(C(=O)N(C)C)c3O)c(=O)c2=O)C2(C)COC2)c1 (stereo not shown) [Example 28, 3-(2-{[(3-methyloxetan-3-yl)-(3-methoxyphenyl)methyl]-amino}-3,4-dioxocyclobut-1-enylamino)-2-hydroxy-N,N-dimethylbenzamide] | 0.475 µM | 5.54 µM |
| COc1ccc(C(Nc2c(Nc3cccc(C(=O)N(C)C)c3O)c(=O)c2=O)C2(C)COC2)cc1 (stereo not shown) [Example 29, 3-(2-{[(3-methyloxetan-3-yl)-(4-methoxyphenyl)methyl]amino}-3,4-dioxocyclobut-1-enylamino)-2-hydroxy-N,N-dimethylbenzamide] | 0.433 µM |  |
| CN(C)C(=O)c1cccc(Nc2c(NC(c3ccc4c(c3)OCO4)C3(C)COC3)c(=O)c2=O)c1O (stereo not shown) [Example 30, 3-(2-{[benzo[1,3]dioxol-5-yl-(3-methyloxetan-3-yl)methyl]amino}-3,4-dioxocyclobut-1-enylamino)-2-hydroxy-N,N-dimethylbenzamide] | 0.349 µM | 2.25 µM |
| COc1ccc(Nc2c(NC(c3ccc(C)o3)C3(C)COC3)c(=O)c2=O)c(O)n1 (stereo not shown) [Example 39, 3-(2-hydroxy-6-mèthoxypyridin-3-ylamino)-4-{[(5-methylfuran-2-yl)-(3-methyloxetan-3-yl)methyl]amino}cyclobut-3-ene-1,2-dione] | 1.03 µM | 10 µM |
| Cc1ccc(C(Nc2c(Nc3ccc(Cl)nc3O)c(=O)c2=O)C2(C)COC2)o1 (stereo not shown) [Example 40, 3-(6-chloro-2-hydroxypyridin-3-ylamino)-4-{[(5-methylfuran-2-yl)-(3-methyloxetan-3-yl)methyl]amino}cyclobut-3-ene-1,2-dione] | 0.502 µM | 5.23 µM |
| Cc1ccc(C(Nc2c(Nc3cccc(C#N)c3O)c(=O)c2=O)C2(C)COC2)o1 (stereo not shown) [Example 42, 2-hydroxy-3-(2-{[(5-methylfuran-2-yl)-(3-methyloxetan-3-yl)methyl]amino}-3,4-dioxocyclobut-1-enylamino)benzonitrile] | 0.311 µM |  |

Now from value to compound:

| IC50 (CXCR2 receptor) | IC50 (CXCR1 receptor) | Compound |
| --- | --- | --- |
| 0.106 µM | 1.15 µM | CCC1(C(Nc2c(Nc3cccc(C(=O)N(C)C)c3O)c(=O)c2=O)c2ccc(C)o2)COC1 (stereo not shown) [Example 3, 3-(2-{[(3-ethyloxetan-3-yl)-(5-methylfuran-2-yl)methyl]amino}-3,4-dioxocyclobut-1-enylamino)-2-hydroxy-N,N-dimethylbenzamide] |
| 0.06 µM | 0.666 µM | COC(=O)[C@@H]1CCCN1C(=O)c1cccc(Nc2c(N[C@@H](c3ccc(C)o3)C3(C)COC3)c(=O)c2=O)c1O [Example 9, methyl (S)-1-[2-hydroxy-3-(2-{[(R)-(5-methylfuran-2-yl)-(3-methyloxetan-3-yl)methyl]amino}-3,4-dioxocyclobut-1-enylamino)benzoyl]pyrrolidine-2-carboxylate] |
| 0.106 µM | 1.61 µM | CN(C)C(=O)c1cccc(Nc2c(NC(c3cccs3)C3(C)COC3)c(=O)c2=O)c1O (stereo not shown) [Example 34, 2-hydroxy-N,N-dimethyl-3-(2-{[(3-methyloxetan-3-yl)thiophen-2-ylmethyl]amino}-3,4-dioxocyclobut-1-enylamino)benzamide] |
| 0.198 µM | 1.71 µM | CN(C)C(=O)c1cccc(Nc2c(NC(c3ccco3)C3(C)COC3)c(=O)c2=O)c1O (stereo not shown) [Example 36, 3-(2-{[furan-2-yl-(3-methyloxetan-3-yl)methyl]amino}-3,4-dioxocyclobut-1-enylamino)-2-hydroxy-N,N-dimethylbenzamide] |
| 0.032 µM | 0.827 µM | Cc1coc(C(Nc2c(Nc3cccc(C(=O)N(C)C)c3O)c(=O)c2=O)C2(C)COC2)c1 (stereo not shown) [Example 37a, 2-hydroxy-N,N-dimethyl-3-(2-{[(4-methylfuran-2-yl)-(3-methyloxetan-3-yl)methyl]amino}-3,4-dioxocyclobut-1-enylamino)benzamide] |
| 0.207 µM | 7.69 µM | Cc1ccoc1C(Nc1c(Nc2cccc(C(=O)N(C)C)c2O)c(=O)c1=O)C1(C)COC1 (stereo not shown) [Example 37b, 2-Hydroxy-N,N-dimethyl-3-(2-{[(3-methylfuran-2-yl)-(3-methyloxetan-3-yl)methyl]amino}-3,4-dioxocyclobut-1-enylamino)benzamide] |
| 0.025 µM | 0.322 µM | CC(C)c1coc(C(Nc2c(Nc3cccc(C(=O)N(C)C)c3O)c(=O)c2=O)C2(C)COC2)c1 (stereo not shown) [Example 38, 2-hydroxy-N,N-dimethyl-3-(2-{[(4-isopropylfuran-2-yl)-(3-methyloxetan-3-yl)methyl]amino}-3,4-dioxocyclobut-1-enylamino)benzamide] |
| 0.026 µM | 0.566 µM | Cc1ccc([C@H](Nc2c(Nc3cccc(C(=O)N(C)CC(F)(F)F)c3O)c(=O)c2=O)C2(C)COC2)o1 [Example 48, 2-hydroxy-N-methyl-3-(2-{[(R)-(5-methylfuran-2-yl)-(3-methyloxetan-3-yl)methyl]amino}-3,4-dioxocyclobut-1-enylamino)-N-(2,2,2-trifluoroethyl)benzamide] |
